Assay results published in paper PMC7898648, “Synthesis and Evaluation of Non‐Hydrolyzable Phospho‐Lysine Peptide Mimics” (Chemistry (Weinheim an Der Bergstrasse, Germany), 2020).

Tests used:
[1] = potentiometrically detected; cited from earlier work
[2] = NMR titration for pKa determination of model peptides; assay type: physicochemical; details: 1 mM peptide in 40 mM KCl (H2O + 10 % D2O); for pKa2 (from 31P chemical shift vs pH, inflection point of sigmoidal fit): pH 2 to 11, 278 K, 600 MHz, 8a/8b: mono-protonated phosphoryl oxygen to di-anion, 8c: complete deprotonation of the phosphoryl oxygens
Procedure: Next, we aimed to evaluate the charge distribution of peptides 8 a–c at physiological pH. […] An elegant technique for the pK a determination is NMR titration since this non‐invasive analytical technique enables accurate measurements at desired temperatures at a given pH. Our experimental set up was inspired by the NMR titration conducted by Gamcsik et al. on phosphoramidic acid and other phosphoramides. ^[23] Samples were prepared at a 1 mM concentration in 40 mM KCl (water + 10 % deuterium oxide) and kept at low temperature to minimize P−N bond hydrolysis for 8 c. The pH of each sample was adjusted before measurement and checked again afterwards. Proton (^1H), phosphorous (^31P) 1D as well as ^1H‐^31P‐heteronuclear multiple bond […] (HMBC) NMR spectra were recorded from pH 2 to pH 11 on a 600 MHz (^1H frequency) spectrometer at 278 K and subsequently used for calculations of pK a values (Figure 2 A, exemplified for 8 a, see Figure S3 for 8 b). In order to do so, the chemical shift of ^31P was plotted against the pH values and resulting curves fitted with sigmoidal functions wherein pK a values were obtained from the inflection points (Figure 2 B). We further evaluated the data by plotting and fitting of the ^1H chemical shifts – ζ‐protons for phosphonate 8 a and ϵ‐protons for phosphate 8 b and phosphoramidate 8 c (Figure S4).
Figure 2 A. NMR titration experiments of peptide 8 a. Conditions: NMR spectra of a solution containing 1 mM peptide in 40 mM KCl (H2O+10 % D2O) were recorded at distinct pH values on a 600 MHz (^1H frequency) spectrometer at 278 K. Shown are the overlay of 1D‐^31P spectra at different pH values and extracted correlation signals between ϵ‐protons and phosphorous from ^1H,^31P‐HMBC experiments. B. Graphical visualization of ^31P NMR measurements for phosphonate 8 a (red), phosphate 8 b (blue) and phosphoramidate 8 c (black).

[3] = molecular target: T1, alkaline phosphatase (ALP) (Bos taurus, UniProt P19111); test: Enzymatic stability against alkaline phosphatase (released inorganic phosphate, EnzCheck kit); assay type: in vitro ADME; details: 1 mM substrate, 50 mM Tris, 1 mM MgCl2, 1 mM ZnCl2, pH 8.2, 30 °C, 0.05 U ALP, 2 h; photometric read-out of released Pi at 360 nm (SI: 100 μM, pH 7.8, 90 min); blank without enzyme subtracted
T1 construct: purchased Sigma-Aldrich (aliquots provided by Prof. Fiedler)
Procedure: With the three peptides 8 a–c in hand, we tested their enzymatic stability against the promiscuous alkaline phosphatase (ALP). The substrates 8 a–c were tested for stability towards ALP under optimized conditions. Briefly, 1 mM substrate was dissolved in 50 mM Tris, 1 mM MgCl2, 1 mM ZnCl2, pH 8.2, at 30 °C and was incubated with 0.05 U ALP for 2 h. and the amount of released inorganic phosphate (Pi) was determined via photometric read‐out. […] Furthermore, treatment of 8 b with ALP yielded in a Pi release, which indicated susceptibility of the phosphate analogue towards phosphatases.
Treatment of peptides 8a-c with alkaline phosphatase (ALP). […]
enzymatically hydrolyzed substrate, calculated by subtraction of detected inorganic phosphate (Pi) in blank reactions (without enzyme) from the reactions with enzyme ad de d . He r e i n , w e observed dephosphorylation for both peptides 8b and 8c, which indicated susceptibility of the phosphate analogue towards phosphatases. […]
Reactions were run for 90 min in total, UV -absorbance was measured every 10 min. The enzymatic hydrolysis yield [E] was determined by substraction of [BG]w/oBL from […]
UV/Vis spectra and absorbance values were determined either on a V -630 spectrophotometer at r.t. or a V-550 UV/Vis spectrophotometer equipped with an ETC-505T temperature controller at 20 °C (both Jasco, Tokyo, Japan). […]

T1 sequence (P19111 20-506 limits assumed): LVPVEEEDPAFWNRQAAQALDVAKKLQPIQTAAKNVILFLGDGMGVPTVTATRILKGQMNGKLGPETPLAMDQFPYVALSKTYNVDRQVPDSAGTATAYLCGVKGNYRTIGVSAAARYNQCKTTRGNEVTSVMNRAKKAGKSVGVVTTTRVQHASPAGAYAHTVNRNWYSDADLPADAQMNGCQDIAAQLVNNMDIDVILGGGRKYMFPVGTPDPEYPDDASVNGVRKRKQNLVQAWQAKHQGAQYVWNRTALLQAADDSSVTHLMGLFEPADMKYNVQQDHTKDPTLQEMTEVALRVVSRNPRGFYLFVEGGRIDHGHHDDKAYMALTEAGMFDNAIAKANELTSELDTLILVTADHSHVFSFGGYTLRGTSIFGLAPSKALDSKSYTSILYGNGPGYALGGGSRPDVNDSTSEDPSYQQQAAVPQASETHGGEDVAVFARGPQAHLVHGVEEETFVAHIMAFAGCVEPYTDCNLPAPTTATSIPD

Row | Structure (SMILES) | pKa for the protonation on nitrogen [1] | pKa for the protonation on one phosphoryl oxygen [1] | pKa2 (from 31P chemical shift vs pH, inflection point of sigmoidal fit) [2] | pKa3 (deprotonation of the amine) ([2]; 31P shift vs pH, 278 K) | stability towards ALP (enzymatic hydrolysis, Pi release) [3]
1 | CCCCNP(=O)(O)O [N‐(n‐butyl)phosphoramidate] | 9.9 | 2.9 |  |  | 
2 | CC(=O)N[C@@H](Cc1ccc(O)cc1)C(=O)N[C@@H](CCSCCP(=O)(O)O)C(=O)NCC(N)=O [8a] |  |  | 7.08±0.03 |  | 
3 | CC(=O)N[C@@H](Cc1ccc(O)cc1)C(=O)N[C@@H](CCCCNP(=O)(O)O)C(=O)NCC(N)=O [8c, ^AcTyrpLysGly^CONH2] |  |  | 2.88±0.30 | 9.64±0.07 | 
4 | CC(=O)N[C@@H](Cc1ccc(O)cc1)C(=O)N[C@@H](CCCCOP(=O)(O)O)C(=O)NCC(N)=O [8b] |  |  | 6.54±0.13 |  | dephosphorylation
